Source: patent publication US20240400584A1, “COMPOUNDS AND METHODS FOR MODULATING SPLICING” (REMIX THERAPEUTICS INC., priority 2021, published 2024)

Key:
HTT = experiment: RT-qPCR splicing assay, HTT AJ/CJ mRNA; type: cell-based, human; settings: A673 or K562 cells; for AC50: increase in alternative junction mRNA; for IC50: decrease in canonical junction mRNA
Procedure, shortened: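 Following 24 h compound exposure at 37 °C (11 points, 3-fold, highest 10 uM; DMSO ≤0.25%), A673 or K562 lysates underwent RT-qPCR for exon-inclusion (AJ) and canonical (CJ) junctions of HTT and MYB. Relative quantification used housekeeping-gene ΔCt and DMSO-normalized ΔΔCt, converted to percentage response.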

MYB = experiment: Gene panel canonical junction qPCR assay, MYB CJ mRNA (Table 7); type: cell-based; settings: Homo sapiens, read-out: MYB CJ mRNA decrease IC50
Procedure, shortened: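 A673/K562 cells + cpd → lysate → cDNA → qPCR, CY5 5′ nuclease probe set overlapping canonical junction. Normalized to GAPDH/GUSB/PPIA and DMSO via ΔΔCt, RQ → % response over fixed ΔCt window. IC50 = 50% CJ decrease, 4PL fit.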

SMILES	AC50 (HTT; Homo sapiens, 24 h) [µM]	IC50 (MYB) [µM]	IC50 (HTT; Homo sapiens, 24 h) [µM]	IC50 (HTT; Homo sapiens, 24 hours) [µM]	AC50 (HTT; Homo sapiens, 24 hours) [µM]	IC50 (HTT; 24 hours) [µM]	AC50 (HTT; 24 hours) [µM]
C[C@@H]1C[C@H](N(C)c2ccc3c(c2)OCc2cc(-c4cn[nH]c4)ccc2-3)CCN1 [Compound 101]	> 10	> 10					
C[C@H]1C[C@H](N(C)c2ccc3c(c2)OCc2cc(-c4cn[nH]c4)ccc2-3)CCN1 [Compound 102]	> 10	> 10	> 10				
CN(c1ccc2c(c1)OCc1cc(-c3cn[nH]c3)ccc1-2)[C@@H]1C[C@H]2CC[C@@H](C1)N2 [Compound 104]	> 10	> 10	> 10				
CN(c1ccc2c(c1)OCc1cc(-n3cccn3)ccc1-2)[C@@H]1C[C@H]2CC[C@@H](C1)N2 [Compound 105]		> 10		> 10	> 10		
CN(c1ccc2c(n1)OCc1cc(-c3cn[nH]c3)ccc1-2)[C@@H]1C[C@H]2CC[C@@H](C1)N2 [Compound 108]	< 0.1	0.1 to 1	< 0.1				
CN(c1ccc2c(c1)CCOc1cc(-n3cccn3)ccc1-2)[C@@H]1C[C@H]2CC[C@@H](C1)N2 [Compound 113]	> 10	> 10	> 10				
CN(c1ccc2c(n1)OCc1cc(-c3cn[nH]c3)ccc1-2)C1CCNCC1 [Compound 116]	1 to 10	1 to 10	0.1 to 1				
CN(c1ccc2c(c1)COc1cc(-n3cccn3)ccc1-2)C1CC(C)(C)NC(C)(C)C1 [Compound 117]	> 10	1 to 10	> 10				
CC1(C)CC(Nc2ccc3c(c2)COc2cc(-n4cccn4)ccc2-3)CC(C)(C)N1 [Compound 118]	> 10	> 10	> 10				
CN(c1ccc2c(n1)COc1cc(-c3cn[nH]c3)ccc1-2)[C@@H]1C[C@H]2CC[C@@H](C1)N2 [Compound 121]	0.1 to 1	1 to 10	0.1 to 1				
CN(c1ccc2c(n1)COc1cc(-n3cccn3)ccc1-2)[C@@H]1C[C@H]2CC[C@@H](C1)N2 [Compound 124]		1 to 10				1 to 10	1 to 10
CN(c1ccc2c(n1)COc1cc(-n3cccn3)ccc1-2)C1CC(C)(C)NC(C)(C)C1 [Compound 125]	> 10	> 10	> 10				
CN(c1ccc2c(n1)CCOc1cc(-n3cccn3)ccc1-2)C1CC(C)(C)NC(C)(C)C1 [Compound 129]	> 10	> 10	> 10				
CC1(C)CC(Nc2ccc3c(n2)COc2cc(-n4cccn4)ccc2-3)CC(C)(C)N1 [Compound 134]	1 to 10	1 to 10	1 to 10				
CN(c1cnc2c(n1)OCc1cc(-c3cn[nH]c3)ccc1-2)C1CC(C)(C)NC(C)(C)C1 [Compound 142]		0.1 to 1				0.1 to 1	0.1 to 1
c1cc2c(cc1-c1cn[nH]c1)COc1nc(N[C@@H]3C[C@H]4CC[C@@H](C3)N4)cnc1-2 [Compound 143]	0.1 to 1	0.1 to 1	0.1 to 1				
CN(c1cnc2c(n1)OCc1cc(-c3cn[nH]c3)ccc1-2)[C@@H]1C[C@H]2CC[C@@H](C1)N2 [Compound 144]	0.1 to 1	0.1 to 1	0.1 to 1				
CN(c1ccc2c(n1)OCCc1cc(-c3cn[nH]c3)ccc1-2)C1CC(C)(C)NC(C)(C)C1 [Compound 145]	> 10	1 to 10	> 10				
CN(c1ccc2c(n1)OCCc1cc(-c3cn[nH]c3)ccc1-2)[C@@H]1C[C@H]2CC[C@@H](C1)N2 [Compound 146]	1 to 10	> 10	1 to 10				
CN(c1ccc2c(n1)OCc1cc(-c3cn[nH]c3)ccc1-2)C1CC(C)(C)NC(C)(C)C1 [Compound 147]	0.1 to 1	1 to 10	0.1 to 1				
CN(c1ccc2c(n1)OCc1cc(-n3cccn3)ccc1-2)C1CC(C)(C)NC(C)(C)C1 [Compound 148]	1 to 10	1 to 10	1 to 10				
CN(c1ccc2c(n1)OCc1cc(-n3cccn3)ccc1-2)[C@@H]1C[C@H]2CC[C@@H](C1)N2 [Compound 149]	< 0.1	0.1 to 1	0.1 to 1				
CN(c1ccc2c(n1)OCc1cc(-n3nccn3)ccc1-2)[C@@H]1C[C@H]2CC[C@@H](C1)N2 [Compound 151]	< 0.1	0.1 to 1	< 0.1				
CN(c1ccc2c(n1)OCc1cc(-n3ccnn3)ccc1-2)[C@@H]1C[C@H]2CC[C@@H](C1)N2 [Compound 152]	< 0.1	0.1 to 1	0.1 to 1				

SMILES	AC50 (HTT; Homo sapiens, 24 h) [µM]	IC50 (MYB) [µM]	IC50 (HTT; Homo sapiens, 24 h) [µM]	IC50 (HTT; Homo sapiens, 24 hours) [µM]	AC50 (HTT; Homo sapiens, 24 hours) [µM]	IC50 (HTT; 24 hours) [µM]	AC50 (HTT; 24 hours) [µM]
CN(c1ccc2c(n1)OCc1cc(-c3ccn(C)c(=O)c3)ccc1-2)[C@@H]1C[C@H]2CC[C@@H](C1)N2 [Compound 153]	< 0.1	0.1 to 1	< 0.1				
Cc1[nH]ncc1-c1ccc2c(c1)COc1nc(N(C)[C@@H]3C[C@H]4CC[C@@H](C3)N4)ccc1-2 [Compound 154]	0.1 to 1	0.1 to 1	0.1 to 1				
Cc1ncc(-c2ccc3c(c2)COc2nc(N(C)[C@@H]4C[C@H]5CC[C@@H](C4)N5)ccc2-3)o1 [Compound 155]	< 0.1	0.1 to 1	< 0.1				
COc1cc(-c2ccc3c(c2)COc2nc(N(C)[C@@H]4C[C@H]5CC[C@@H](C4)N5)ccc2-3)ccn1 [Compound 156]	< 0.1	0.1 to 1	< 0.1				
CN(c1ccc2c(n1)OCc1cc(-c3ccc(=O)[nH]c3)ccc1-2)[C@@H]1C[C@H]2CC[C@@H](C1)N2 [Compound 157]	1 to 10	1 to 10	1 to 10				
CN(c1ccc2c(n1)OCc1cc(-c3ccc(=O)n(C)c3)ccc1-2)[C@@H]1C[C@H]2CC[C@@H](C1)N2 [Compound 158]	0.1 to 1	0.1 to 1	0.1 to 1				
COc1cc(-c2ccc3c(c2)COc2nc(N(C)[C@@H]4C[C@H]5CC[C@@H](C4)N5)ccc2-3)cnn1 [Compound 159]	< 0.1	< 0.1	< 0.1				
CN(c1ccc2c(n1)OCc1cc(-c3cnn(C)c(=O)c3)ccc1-2)[C@@H]1C[C@H]2CC[C@@H](C1)N2 [Compound 160]	< 0.1	0.1 to 1	< 0.1				
CN(c1ccc2c(n1)OCc1cc(-c3cnc(=O)[nH]c3)ccc1-2)[C@@H]1C[C@H]2CC[C@@H](C1)N2 [Compound 161]	> 10	> 10	> 10				
CN(c1ccc2c(n1)OCc1cc(-c3cc(=O)n(C)cn3)ccc1-2)[C@@H]1C[C@H]2CC[C@@H](C1)N2 [Compound 162]	< 0.1	0.1 to 1	< 0.1				
CN(c1ccc2c(n1)OCc1cc(-n3ccnc3)ccc1-2)[C@@H]1C[C@H]2CC[C@@H](C1)N2 [Compound 163]	< 0.1	0.1 to 1	< 0.1				
Cc1cn(-c2ccc3c(c2)COc2nc(N(C)[C@@H]4C[C@H]5CC[C@@H](C4)N5)ccc2-3)cn1 [Compound 164]	< 0.1	0.1 to 1	< 0.1				
CC1(C)CC(Nc2ccc3c(n2)OCc2cc(-n4cccn4)ccc2-3)CC(C)(C)N1 [Compound 165]	0.1 to 1	1 to 10	0.1 to 1				
c1cnn(-c2ccc3c(c2)COc2nc(NC4CNC4)ccc2-3)c1 [Compound 166]	> 10	> 10	> 10				
Cc1cnc(-c2ccc3c(c2)COc2nc(N(C)[C@@H]4C[C@H]5CC[C@@H](C4)N5)ccc2-3)o1 [Compound 206]	0.1 to 1	0.1 to 1	0.1 to 1				
c1cc2c(cc1-c1cn[nH]c1)COc1nc(N3CCC34CCNC4)ccc1-2 (stereo not shown) [Compound 207]		1 to 10					
Cc1ncc(-c2ccc3c(c2)COc2nc(O[C@@H]4C[C@H]5C[C@@H](C4)N5)ccc2-3)s1 [Compound 208]		0.1 to 1					
c1cc2c(cc1-c1cn[nH]c1)COc1nc(O[C@@H]3C[C@H]4CC[C@@H](C3)N4)ccc1-2 [Compound 218]	< 0.1	0.1 to 1	< 0.1				
COc1cc(-c2ccc3c(c2)COc2nc(N4CCC(NC5(C)CCC5)C4)ccc2-3)cnn1 (stereo not shown) [Compound 285, 1-[8-(6-methoxypyridazin-4-yl)-6H-isochromeno[3,4-b]pyridin-3-yl]-N-(1-methylcyclobutyl)pyrrolidin-3-amine]	0.1 to 1	0.1 to 1	< 0.1				
CC(C)Oc1cnnc(-c2ccc3c(c2)COc2nc(N4CCC(NC(C)(C)C)C4)ccc2-3)c1 (stereo not shown) [Compound 286]	> 10	> 10	> 10				
COc1cc(-c2ccc3c(c2)COc2nc(N4CCN[C@@H](C)C4)ccc2-3)cnn1 [Compound 287]	0.1 to 1	1 to 10	0.1 to 1				
COc1cc(-c2ccc3c(c2)COc2nc(O[C@@H]4C[C@H]5COC[C@@H](C4)N5)ccc2-3)cnn1 [Compound 290, (exo)-7-{[8-(6-methoxypyridazin-4-yl)-6H-isochromeno[3,4-b]pyridin-3-yl]oxy}-3-oxa-9-azabicyclo[3.3.1]nonane]	0.1 to 1	0.1 to 1	< 0.1				
COc1cc(-c2ccc3c(c2)COc2nc(N4CCC(N5CCCC5)C4)ccc2-3)cnn1 (stereo not shown) [Compound 305]	0.1 to 1	1 to 10	0.1 to 1				
